Laboratory results as given in US20140242707A1, “Compositions and Methods for Diagnosing Hypercoagulability and Hypocoagulability” (Philadelphia Health & Education Corporation d/b/a Drexel …, priority 2011, published 2014).

Test system: horse plasma
Experiment: Thrombelastography of horse plasma, coagulation and fibrinolysis study (with tPA)
Format: biochemical
Details: for % TTG Loss / MRL / MRTG / TMRL / TMRTG / TTG / CGT / CLS / CLT: CORM-2 100 μM
Description: Blood was collected directly into plastic tubes containing 0.105 M sodium citrate (9:1, v/v) from the jugular vein of ten clinically normal grade and American Quarter Horse mares between 400 and 600 kg. Three additional horses to be subsequently described with acute gastrointestinal disease had blood samples similarly collected. The mares were group-housed in corrals. Plasma was obtained by centrifugation of citrated whole blood at 3000×g for 15 minutes and immediately frozen at −80° C. Plasma was subsequently shipped on dry ice and stored at −80° C. until thrombelastographic analysis.
In the second series of experiments assessing both coagulation and fibrinolysis, sample composition consisted of 316 μl of plasma; 10 μl of tissue factor reagent (0.1% final concentration), 10 μl of tissue type plasminogen activator (tPA, 580 Genentech, Inc., San Francisco, Calif., USA; 300 IU/ml final concentration); 3.6 μl of dH2O, or 3.6 μl dH2O containing PHA (10 mM final concentration), or 3.6 μl of CORM-2 (100 μM final concentration) and 20 μl of 200 mM CaCl2. The effects of converting heme groups to either a carboxyheme or metheme in horse plasma during clot growth and fibrinolysis were assessed as subsequently described.
Plasma sample mixtures were placed in a disposable cup in a computer-controlled Thrombelastograph® hemostasis system (Model 5000, Haemoscope Corp., Niles, Ill., USA), with addition of CaCl2 as the last step to initiate clotting. Data were collected at 37° C. for 15 min in the first series of experiments involving coagulation alone, whereas in the experiments involving fibrinolysis data were collected until clot lysis time was observed. Elastic modulus-based parameters previously described were determined (Nielsen et al., 2009, Blood Coagul Fibrinolysis, 20: 377-380; Nielsen et al., 2009, Blood Coagul Fibrinolysis, 20: 448-455). The nomenclature used to describe these phenomena is as follows:
Time to maximum rate of thrombus generation (TMRTG): This is the time interval (min) observed prior to maximum speed of clot growth.
Maximum rate of thrombus generation (MRTG): This is the maximum velocity of clot growth observed (dynes/cm^2/sec).
Total Thrombus Generation (TTG): This is the total area under the velocity curve during clot growth (dynes/cm^2), representing the amount of clot strength generated during clot growth.
Time to maximum rate of lysis (TMRL): This is the time interval (min) measured from the time of maximum strength to the time when the velocity of clot disintegration is maximal.
Maximum Rate of Lysis (MRL): This is the maximum velocity of clot disintegration observed (-dynes/cm^2/sec).
Clot growth time (CGT): This is the time from clot amplitude of 2 mm [102 dynes/cm^2] until maximum strength is achieved, in min.
Clot lifespan (CLS): This is the sum of CGT and CLT.
Thrombelastographic data are presented as mean±SD or as individual animal parameter values as appropriate. The effects of addition of CORM-2 and PHA on coagulation and fibrinolytic kinetic parameters were analyzed with one way repeated measures analysis of variance, utilizing Holm-Sidak post hoc test (SigmaStat 3.1, Systat Software, Inc., San Jose, Calif., USA) as appropriate. A P value of <0.05 was considered significant.

[1] = horse with lethal enteritis, tPA
[2] = horse with mild disease, tPA, PHA 10 mM
[3] = horse with moderate disease, tPA, PHA 10 mM
[4] = horse with moderate enteritis, tPA
[5] = normal horses, tPA 300 IU/ml, PHA 10 mM

[C-]#[O+].[C-]#[O+].[C-]#[O+].[C-]#[O+].[C-]#[O+].[C-]#[O+].[Cl][Ru][Cl].[Cl][Ru][Cl] [CORM-2, tricarbonyldichlororuthenium (II) dimer]
% TTG Loss (horse with lethal disease, tPA): 67.4% | MRL (horse with lethal disease, tPA): 0.1 -dynes/cm^2/sec | MRTG (horse with lethal disease, tPA): 2.8 dynes/cm^2/sec | TMRL (horse with lethal disease, tPA): 65.2 min | TMRTG (horse with lethal disease, tPA): 4.1 min | TTG (horse with lethal disease, tPA): 92 dynes/cm^2 | effect on MRL vs control sample [1]: did not affect | increase in MRTG vs control sample [1]: 12% | increase in TMRL vs control sample [1]: 8 fold | increase in TTG vs control sample [1]: 73% | % TTG Loss [2]: 50.7% | MRL [2]: 0.2 -dynes/cm^2/sec | MRTG [2]: 6.8 dynes/cm^2/sec | TMRL [2]: 122.8 min | TMRTG [2]: 3.2 min | TTG [2]: 274 dynes/cm^2 | decrease in MRL vs control sample (horse with mild enteritis, tPA): 88% | decrease in MRTG vs control sample (horse with mild enteritis, tPA): 3% | increase in TMRL vs control sample (horse with mild enteritis, tPA): 46 fold | increase in TTG vs control sample (horse with mild enteritis, tPA): 77% | % TTG Loss [3]: 25.8% | MRL [3]: 0.4 -dynes/cm^2/sec | MRTG [3]: 7.2 dynes/cm^2/sec | TMRL [3]: 62.9 min | TMRTG [3]: 2.5 min | TTG [3]: 198 dynes/cm^2 | decrease in MRL vs control sample [4]: 83% | increase in MRTG vs control sample [4]: 38% | increase in TMRL vs control sample [4]: 55 fold | increase in TTG vs control sample [4]: 160% | decrease in CGT vs control (normal horses, tPA): 26% | decrease in CLS (clot lifespan) vs control (normal horses, tPA): 77% | decrease in CLT vs control (normal horses, tPA): 83% | decrease in MRL vs control (normal horses, tPA): 27% | increase (prolongation) in TMRL vs control (normal horses, tPA): 113% | increase in CGT vs control (normal horses, tPA): 106% | increase in CLS vs control (normal horses, tPA): 154% | increase in CLT vs control (normal horses, tPA): 160% | increase in TTG vs control (normal horses, tPA): 35% | CGT [5]: 6.4 ± 1.7 min | CLS [5]: 77.1 ± 23.8 | CLT [5]: 70.6 ± 23.0 min | MRL [5]: 1.1 ± 0.5 -dynes/cm^2/sec | MRTG [5]: 13.2 ± 3.4 dynes/cm^2/sec | TMRL [5]: 26.2 ± 17.3 min | TMRTG [5]: 2.7 ± 0.4 min | TTG [5]: 312 ± 70 dynes/cm^2

ONc1ccccc1 [PHA, phenylhydroxylamine]
% TTG Loss [2]: 100% | MRL [2]: 2.6 -dynes/cm^2/sec | MRTG [2]: 4.0 dynes/cm^2/sec | TMRL [2]: 2.4 min | TMRTG [2]: 3.4 min | TTG [2]: 100 dynes/cm^2 | decrease in MRTG vs control sample (horse with mild enteritis, tPA): 42% | decrease in TTG vs control sample (horse with mild enteritis, tPA): 28% | difference in TMRL between control and exposed sample (horse with mild enteritis, tPA): 8% | increase in MRL vs control sample (horse with mild enteritis, tPA): 53% | % TTG Loss [3]: 100% | MRL [3]: 2.3 -dynes/cm^2/sec | MRTG [3]: 4.5 dynes/cm^2/sec | TMRL [3]: 2.8 min | TMRTG [3]: 2.8 min | TTG [3]: 94 dynes/cm^2 | change in MRL vs control sample [4]: essentially no change | decrease in MRTG vs control sample [4]: 13% | increase in TMRL vs control sample [4]: 64% | increase in TTG vs control sample [4]: 23% | decrease in CLS (clot lifespan) vs control (normal horses, tPA): 77% | decrease in MRTG vs control (normal horses, tPA): 55% | decrease in TMRL vs control (normal horses, tPA): 84% | increase in MRL vs control (normal horses, tPA): 133% | CGT [5]: 2.3 ± 0.5 min | CLS [5]: 6.9 ± 1.4 | CLT [5]: 4.6 ± 1.3 min | MRL [5]: 3.5 ± 0.8 -dynes/cm^2/sec | MRTG [5]: 5.6 ± 1.3 dynes/cm^2/sec | TMRL [5]: 2.0 ± 0.2 min | TMRTG [5]: 3.2 ± 0.6 min | TTG [5]: 118 ± 26 dynes/cm^2
